Assay results published in patent US9302999B2, “Substituted triazoles as herbicides” (E. I. DU PONT DE NEMOURS AND COMPANY, priority 2012, dated 2016).
Where two headings read alike, the source gives them in different places.

Legend:
Format in all cases: in vivo
[1] = system: chickweed (common chickweed, Stellaria media); assay: Test C postemergence: chickweed
Outline: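 Visual ratings of 0 (no effect) to 100 (complete control) were made against controls 13-15 days after a postemergence spray, with plants kept in a greenhouse. Plants were 2-18 cm tall (1- to 4-leaf stage) in Redi-Earth peat/vermiculite medium at treatment.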

[2] = system: nutsedge, yellow (yellow nutsedge, Cyperus esculentus); assay: Test C pre-/postemergence: nutsedge, yellow
Outline: (§1)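 Visual injury scored 0–100 (100 = complete control) against untreated controls after 13–15 greenhouse days. Surfactant-containing solvent formulations applied either to soil after sowing (loam/sand) or over 1- to 4-leaf plants, 2–18 cm tall.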

[3] = system: blackgrass (Alopecurus myosuroides); assay: Test C pre-/postemergence: blackgrass
Outline: as §1

[4] = system: barnyardgrass (Echinochloa crus-galli); assay: Test A pre-/postemergence: barnyardgrass; conditions: for pest or weed control at 125 g/ha / pest or weed control at 500 g/ha: Echinochloa crus-galli, 240 h
Outline: (§2)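 Injury was scored visually on a 0 (no effect) to 100 (complete control) scale versus untreated controls roughly ten days after treatment in the greenhouse. Compounds, formulated in surfactant-containing non-phytotoxic solvent, went on as soil-directed preemergence spray or postemergence to one- to two-leaf plants 2–10 cm tall.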

[5] = system: pigweed (Amaranthus retroflexus); assay: Test A pre-/postemergence: pigweed; conditions: for pest or weed control at 125 g/ha / pest or weed control at 500 g/ha: Amaranthus retroflexus, 240 h
Outline: as §2

[6] = system: ryegrass, Italian (Italian ryegrass, Lolium multiflorum); assay: Test C pre-/postemergence: ryegrass, Italian
Outline: as §1

[7] = system: corn (Zea mays); assay: Test C pre-/postemergence: corn
Outline: as §1

[8] = system: velvetleaf (Abutilon theophrasti); assay: Test A pre-/postemergence: velvetleaf; conditions: for pest or weed control at 125 g/ha / pest or weed control at 500 g/ha: Abutilon theophrasti, 240 h
Outline: as §2

[9] = system: morningglory (Ipomoea spp.); assay: Test A pre-/postemergence: morningglory
Outline: as §2

[10] = system: lambsquarters (Chenopodium album); assay: Test C pre-/postemergence: lambsquarters
Outline: as §1

[11] = system: wheat (Triticum aestivum); assay: Test A pre-/postemergence: wheat; conditions: for plant injury at 125 g/ha / plant injury at 500 g/ha: Triticum aestivum, 240 h
Outline: as §2

[12] = system: morningglory (Ipomoea coccinea); assay: Test C pre-/postemergence: morningglory
Outline: as §1

[13] = 31 g ai/ha, scale 0 to 100 (0 no effect, 100 complete control)
[14] = 62 g ai/ha, scale 0 to 100 (0 no effect, 100 complete control)
[15] = 125 g ai/ha, scale 0 to 100, 0 no effect, 100 complete control
[16] = Postemergence, 31 g ai/ha, scale 0 to 100 (0 no effect, 100 complete control)
[17] = Postemergence, 62 g ai/ha, scale 0 to 100 (0 no effect, 100 complete control)
[18] = Postemergence, 125 g ai/ha, scale 0 to 100, 0 no effect, 100 complete control
[19] = Postemergence, 250 g ai/ha, scale 0 to 100
[20] = Preemergence, 31 g ai/ha, scale of 0 to 100, 0 is no effect, 100 is complete control
[21] = Preemergence, 125 g ai/ha, scale 0 to 100, 0 no effect, 100 complete control
[22] = Preemergence, 250 g ai/ha, scale 0 to 100, 0 no effect, 100 complete control
[23] = Preemergence, 62 g ai/ha, scale of 0 to 100, 0 is no effect, 100 is complete control
[24] = Postemergence, 125 g ai/ha, 0 to 100 scale, 0 is no effect, 100 is complete control
[25] = Postemergence, 500 g ai/ha, visual rating on 0 to 100 scale (0 no effect, 100 complete control), approximately ten days
[26] = Preemergence, 125 g ai/ha, 0 to 100 scale where 0 is no effect and 100 is complete control
[27] = Preemergence, 500 g ai/ha, 0 to 100 scale (0 no effect, 100 complete control)

Structure (SMILES): Cc1nn(-c2ccc(F)cc2)nc1Cc1ccnc(C(F)(F)F)c1 [Compound 16, 4-[[2-(4-fluorophenyl)-5-methyl-2H-1,2,3-triazol-4-yl]methyl]-2-(trifluoromethyl)pyridine]
- Plant response rating, Chickweed [1, 13]: 85
- Plant response rating, Chickweed [1, 14]: 98
- Plant response rating, Chickweed [1, 15]: 100
- Plant response rating, Chickweed ([1]; 250 g ai/ha, scale 0 to 100): 100
- Plant response rating, Nutsedge, Yellow [2, 16]: 0
- Plant response rating, Nutsedge, Yellow [2, 17]: 0
- Plant response rating, Nutsedge, Yellow [2, 18]: 0
- Plant response rating, Nutsedge, Yellow [2, 19]: 0
- Plant response rating, Blackgrass [3, 16]: 10
- Plant response rating, Blackgrass [3, 17]: 25
- Plant response rating, Blackgrass [3, 18]: 40
- Plant response rating, Blackgrass [3, 19]: 80
- Plant response rating, Blackgrass [3, 20]: 90
- Plant response rating, Blackgrass ([3]; Preemergence, 62 g ai/ha, scale 0 to 100, 0 no effect, 100 complete control): 100
- Plant response rating, Blackgrass [3, 21]: 100
- Plant response rating, Blackgrass [3, 22]: 100
- pest or weed control at 125 g/ha ([4]; post-emergence, Postemergence, 125 g ai/ha, 0 to 100 scale, 0 is no effect, 100 is complete control, read-out: Barnyardgrass plant response rating): 90%
- pest or weed control at 500 g/ha ([4]; post-emergence, Postemergence, 500 g ai/ha, visual rating on 0 to 100 scale (0 no effect, 100 complete control), approximately ten days, read-out: Barnyardgrass plant response rating): 100%
- pest or weed control at 125 g/ha ([4]; pre-emergence, Preemergence, 125 g ai/ha, 0 to 100 scale (0 no effect, 100 complete control), read-out: Plant response rating, Barnyardgrass): 90%
- pest or weed control at 500 g/ha ([4]; pre-emergence, Preemergence, 500 g ai/ha, 0 to 100 scale, 0 is no effect, 100 is complete control, read-out: Plant response rating, Barnyardgrass): 100%
- pest or weed control at 125 g/ha ([5]; post-emergence, Postemergence, 125 g ai/ha, 0 to 100 scale, 0 is no effect, 100 is complete control, read-out: Pigweed plant response rating): 100%
- pest or weed control at 500 g/ha ([5]; post-emergence, Postemergence, 500 g ai/ha, visual rating on 0 to 100 scale (0 no effect, 100 complete control), approximately ten days, read-out: Pigweed plant response rating): 100%
- pest or weed control at 125 g/ha ([5]; pre-emergence, Preemergence, 125 g ai/ha, 0 to 100 scale (0 no effect, 100 complete control), read-out: Plant response rating, Pigweed): 90%
- pest or weed control at 500 g/ha ([5]; pre-emergence, Preemergence, 500 g ai/ha, 0 to 100 scale, 0 is no effect, 100 is complete control, read-out: Plant response rating, Pigweed): 100%
- Plant response rating, Ryegrass, Italian [6, 16]: 10
- Plant response rating, Ryegrass, Italian [6, 17]: 10
- Plant response rating, Ryegrass, Italian [6, 18]: 20
- Plant response rating, Ryegrass, Italian [6, 19]: 20
- Plant response rating, Ryegrass, Italian [6, 20]: 5
- Plant response rating, Ryegrass, Italian [6, 23]: 95
- Plant response rating, Ryegrass, Italian [6, 21]: 100
- Plant response rating, Ryegrass, Italian [6, 22]: 100
- Plant response rating, Corn [7, 16]: 5
- Plant response rating, Corn [7, 17]: 15
- Plant response rating, Corn [7, 18]: 15
- Plant response rating, Corn [7, 19]: 15
- pest or weed control at 125 g/ha ([8]; post-emergence, Postemergence, 125 g ai/ha, 0 to 100 scale, 0 is no effect, 100 is complete control, read-out: Velvetleaf plant response rating): 100%
- pest or weed control at 500 g/ha ([8]; post-emergence, Postemergence, 500 g ai/ha, visual rating on 0 to 100 scale (0 no effect, 100 complete control), approximately ten days, read-out: Velvetleaf plant response rating): 100%
- pest or weed control at 125 g/ha ([8]; pre-emergence, Preemergence, 125 g ai/ha, 0 to 100 scale (0 no effect, 100 complete control), read-out: Plant response rating, Velvetleaf): 30%
- pest or weed control at 500 g/ha ([8]; pre-emergence, Preemergence, 500 g ai/ha, 0 to 100 scale, 0 is no effect, 100 is complete control, read-out: Plant response rating, Velvetleaf): 80%
- pest or weed control at 125 g/ha ([9]; Ipomoea, post-emergence, 240 h, Postemergence, 125 g ai/ha, 0 to 100 scale, 0 is no effect, 100 is complete control, read-out: Morningglory plant response rating): 80%
- pest or weed control at 500 g/ha ([9]; Ipomoea, post-emergence, 240 h, Postemergence, 500 g ai/ha, visual rating on 0 to 100 scale (0 no effect, 100 complete control), approximately ten days, read-out: Morningglory plant response rating): 100%
- pest or weed control at 500 g/ha ([9]; Ipomoea, pre-emergence, 240 h, Preemergence, 500 g ai/ha, 0 to 100 scale, 0 is no effect, 100 is complete control, read-out: Plant response rating, Morningglory): 80%
- Plant response rating, Lambsquarters [10, 16]: 95
- Plant response rating, Lambsquarters [10, 17]: 100
- Plant response rating, Lambsquarters [10, 18]: 100
- Plant response rating, Lambsquarters [10, 19]: 100
- plant injury at 125 g/ha ([11]; post-emergence, Postemergence, 125 g ai/ha, 0 to 100 scale, 0 is no effect, 100 is complete control, read-out: Wheat plant response rating): 20%
- plant injury at 500 g/ha ([11]; post-emergence, Postemergence, 500 g ai/ha, visual rating on 0 to 100 scale (0 no effect, 100 complete control), approximately ten days, read-out: Wheat plant response rating): 30%
- plant injury at 125 g/ha ([11]; pre-emergence, Preemergence, 125 g ai/ha, 0 to 100 scale (0 no effect, 100 complete control), read-out: Plant response rating, Wheat): 10%
- plant injury at 500 g/ha ([11]; pre-emergence, Preemergence, 500 g ai/ha, 0 to 100 scale, 0 is no effect, 100 is complete control, read-out: Plant response rating, Wheat): 20%
- Plant response rating, Morningglory [12, 16]: 50
- Plant response rating, Morningglory [12, 17]: 75
- Plant response rating, Morningglory [12, 18]: 75
- Plant response rating, Morningglory [12, 19]: 80

Structure (SMILES): Fc1ccc(-n2nc(Cc3ccnc(C(F)(F)F)c3)c(OCC(F)(F)F)n2)cc1 [Compound 142]
- Plant response rating, Chickweed [1, 13]: 85
- Plant response rating, Chickweed [1, 14]: 98
- Plant response rating, Chickweed [1, 15]: 98
- Plant response rating, Chickweed ([1]; 250 g ai/ha, scale 0 to 100): 98
- Plant response rating, Nutsedge, Yellow [2, 16]: 5
- Plant response rating, Nutsedge, Yellow [2, 17]: 5
- Plant response rating, Nutsedge, Yellow [2, 18]: 15
- Plant response rating, Nutsedge, Yellow [2, 19]: 20
- Plant response rating, Nutsedge, Yellow [2, 20]: 0
- Plant response rating, Nutsedge, Yellow [2, 21]: 0
- Plant response rating, Nutsedge, Yellow [2, 22]: 0
- Plant response rating, Blackgrass [3, 16]: 55
- Plant response rating, Blackgrass [3, 17]: 60
- Plant response rating, Blackgrass [3, 18]: 80
- Plant response rating, Blackgrass [3, 19]: 90
- Plant response rating, Blackgrass [3, 20]: 90
- Plant response rating, Blackgrass [3, 23]: 90
- Plant response rating, Blackgrass [3, 21]: 90
- Plant response rating, Blackgrass [3, 22]: 90
- Barnyardgrass plant response rating [4, 24]: 100
- Barnyardgrass plant response rating [4, 25]: 100
- Plant response rating, Barnyardgrass [4, 26]: 100
- Plant response rating, Barnyardgrass [4, 27]: 100
- Plant response rating, Pigweed [5, 24]: 100
- Pigweed plant response rating [5, 25]: 100
- Plant response rating, Pigweed [5, 26]: 100
- Plant response rating, Pigweed [5, 27]: 100
- Plant response rating, Ryegrass, Italian [6, 16]: 10
- Plant response rating, Ryegrass, Italian [6, 17]: 40
- Plant response rating, Ryegrass, Italian [6, 18]: 50
- Plant response rating, Ryegrass, Italian [6, 19]: 50
- Plant response rating, Ryegrass, Italian [6, 20]: 30
- Plant response rating, Ryegrass, Italian [6, 23]: 90
- Plant response rating, Ryegrass, Italian [6, 21]: 90
- Plant response rating, Ryegrass, Italian [6, 22]: 90
- Plant response rating, Corn [7, 16]: 30
- Plant response rating, Corn [7, 17]: 35
- Plant response rating, Corn [7, 18]: 35
- Plant response rating, Corn [7, 19]: 45
- Plant response rating, Corn [7, 20]: 0
- Plant response rating, Corn [7, 23]: 5
- Plant response rating, Corn [7, 21]: 20
- Plant response rating, Corn [7, 22]: 30
- Plant response rating, Velvetleaf [8, 24]: 100
- Velvetleaf plant response rating [8, 25]: 100
- Plant response rating, Velvetleaf [8, 26]: 60
- Plant response rating, Velvetleaf [8, 27]: 90
- Plant response rating, Morningglory [9, 24]: 100
- Morningglory plant response rating [9, 25]: 100
- Plant response rating, Morningglory [9, 26]: 50
- Plant response rating, Morningglory [9, 27]: 80
- Plant response rating, Lambsquarters [10, 16]: 80
- Plant response rating, Lambsquarters [10, 17]: 98
- Plant response rating, Lambsquarters [10, 18]: 98
- Plant response rating, Lambsquarters [10, 19]: 98
- Plant response rating, Lambsquarters [10, 20]: 80
- Plant response rating, Lambsquarters [10, 23]: 90
- Plant response rating, Lambsquarters [10, 21]: 95
- Plant response rating, Lambsquarters [10, 22]: 98
- Plant response rating, Wheat [11, 24]: 80
- Wheat plant response rating [11, 25]: 80
- Plant response rating, Wheat [11, 26]: 70
- Plant response rating, Wheat [11, 27]: 80
- Plant response rating, Morningglory [12, 16]: 60
- Plant response rating, Morningglory [12, 18]: 60
- Plant response rating, Morningglory [12, 19]: 80
- Plant response rating, Morningglory [12, 23]: 35
